We go through four molecules from US5440041A, “Acetal or ketal substituted xanthine compounds” (Cell Therapeutics, Inc., priority 1994, dated 1995).

Read-outs that look alike come from different tables or passages of the source.

For assay [1] the following is noted: U.S. Pat. Nos. 4,515,795 and 4,576,947; cited from earlier work.
Assay [2] concerns polymorphonuclear leukocytes. The conditions noted are these: in response to a stimulator of chemotaxis; U.S. Pat. No. 4,636,507; cited from earlier work.
Assay [3] relates to PBMC (peripheral blood mononuclear cells). In words: Two-way mixed lymphocyte reaction (MLR). The assay is classed as cell-based, human. Particulars: FIG. 1, FIG. 8. The text has this:
Various in vitro assays can be used to measure effects of the inventive compounds to modulate immune activity and have antitumor activity using a variety of cellular types. For example, a mixed lymphocyte reaction (MLR) provides a valuable screening tool to determine biological activity of each inventive compound. In the MLR, PBMCs (peripheral blood mononuclear cells) are obtained by drawing whole blood from healthy volunteers in a heparinized container and diluted with an equal volume of hanks balanced salt solution (HBSS). This mixture is layered on a sucrose density gradient, such as a Ficoll-Hypaque® gradient (specific gravity 1.08), and centrifuged at 1000×g for 25 minutes at room temperature or cooler. PBMC are obtained from a band at a plasma-Ficoll interface, separated and washed at least twice in a saline solution, such as HBSS. Contaminating red cells are lysed, such as by ACK lysis for 10 min at 37° C., and the PBMCs are washed twice in HBSS. The pellet of purified PBMCs is resuspended in complete medium, such as RPMI 1640 plus 20% human inactivated serum. Proliferative response of PBMC to allogeneic stimulation is determined in a two-way MLR performed in a 96-well microtiter plate. […] At the conclusion of the incubation tritiated thymidine is added (for example, 1 μCi/well of 40 to 60 Ci/mmole) and proliferation determined by liquid scintillation counting. […]

For the next assay, the system named is human stromal cells. Kind of assay: Stromal cell proliferation stimulated by PDGF. Particulars: for IC50: Homo sapiens; for inhibition of proliferation of human stromal cells stimulated with PDGF: in words. The assay is classed as cell-based. On the procedure:
Another assay for measuring activity of the inventive compounds involves determining PDGF (platelet derived growth factor) proliferative response using human-derived stromal cells. […] Two to three days later, the stromal cells are starved in serum-free media. Twenty four hours later, the cells are treated with a stimulating agent, such as PDGF-AA, PDGF-BB or basic FGF (fibroblast growth factor) with or without IL-1α or TNF, and tritiated thymidine. Cell proliferation is determined by liquid scintillation counting.
This assay is a model for restenosis and treatment of atherosclerosis and coronary artery disease. Stromal cells were starved in serum-free media for 24 hrs and then stimulated with PDGF-BB (50 ng/ml). The drugs were added at various concentrations one hour prior to PDGF stimulation. Tritiated thymidine was added for 24 hrs at the time of PDGF stimulation and proliferation determined by harvesting and counting the cells by liquid scintillation 24 hrs later.

In a further assay the test system is VCAM. Kind of assay: Cell surface expression of VCAM in TNF-α-stimulated HUVEC (flow cytometry). The class given is cell-based, human. Particulars: TNF-α (20 ng/ml) for 20 hrs; mean fluorescence intensity; FIG. 6. The method, then: Drug inhibitory activity can also be measured by determining levels of vascular cell adhesion molecule (VCAM) in stimulated cells. Early passage human umbilical vein endothelial cells (HUVEC) (obtained from commercial suppliers such as Cell Systems, Inc. or Clonetics) are cultured in media (e.g., Hepes buffered media, Cell Systems) containing 10% fetal bovine serum, and supplemented with a stimulating agent, such as fibroblast growth factor (acidic FGF, Cell Systems, Inc.) or TNF. The cells are plated into wells of a microliter plate (e.g., 5×10^4 per well) and allowed to incubate at 37° C. for 72 hrs. […] After 30 min on ice, the cells are washed twice and analyzed on a flow cytometer (Coulter Elite®) at appropriate emission and excitation wavelengths (e.g., for phycoerythrin use excitation at 488 nm and emission at […]).
The cells were stimulated with TNF-α(20 ng/ml) for 20 hrs and then stained for immunofluorescence using a monoclonal antibody recognizing VCAM, followed by a goat anti-mouse antibody conjugated to phycoerythrin. The cells were analyzed for antibody binding using flow cytometry.
In general terms: Flow cytometry measures light scatter and fluorescence of single cells or particles in a stream.

Assay [4] has as its system adhesion of U937 cells to activated human umbilical vein endothelial cells (HUVEC). In words: Adhesion of U937 cells to TNF-activated HUVEC. Particulars: HUVEC activated with 20 ng/ml human TNF for 12 hours; drug one hour prior to TNF; FIG. 5. The assay is classed as cell-based. On the procedure: Another assay measures the effects of drug to inhibit adhesion of U937 cells to TNF-activated HUVEC cells In this experiment, HUVEC cells are induced with human TNF-α (20 ng/ml) and drug at varying concentrations for 14-16 hrs. U937 cells (a human monocyte cell line) are incubated and labeled with BCECF (10 μg/ml), a fluorescent dye. The U937 cell preparation (2.5×10^4 cells per well) is layered on top of the activated HUVEC cells. The cells are reverse spun to remove partially adhering and nonadhering U937 cell. The adherent U937 cells are measured by fluorescence on a fluorescent plate reader.
This example illustrates the effect of CT1573 to inhibit adhesion of U937 cells to activated human umbilical vein endothelial cells (HUVEC). HUVEC cells (4000/well, seeded 72 hrs in advance) were activated with 20 ng/ml of human TNF for 12 hours. CT1573 was added to the samples one hour prior to adding TNF. U937 cells were preloaded with a fluorescent dye (BCECF) were added to the HUVEC cells in each well for 30 min, the cells washed twice with PBS and adhesion measured after washing. Adhesion was measured on a fluorescence plate reader. Background adhesion of U937 cells to non-activated HUVEC is shown as a dashed line.

For another assay, the system named is 293-EBNA cells. In words: Reporter gene expression (CMV promoter, secreted placental alkaline phosphatase) in tumor cells. The assay is classed as cell-based. The conditions noted are these: compared with CT1501R, CT1567 and CT1590; absorbance at 405 nm; FIG. 7. The text has this: FIG. 7 illustrates the effects of CT1590 (racemate N-(5,6-[…]) theobromine), CT1573, CT1567 and CT1501R (an alcohol-substituted xanthine) on cell proliferation as a measure of antitumor activity and the ability of each drug to inhibit gene expression in tumor cells. A specific plasmid construct employing a human CMV (cytomegalovirus) promoter directs the expression of a reporter gene (secreted human placental alkaline phosphatase) that was transformed into the tumor cell line 293-EBNA cells. The cells were treated with various concentrations of drug. Antitumor activity was measured in culture supernatants by expression of alkaline phasphatase reporter gene by absorbance at 405 nm of cell conditioned medium in the presence of substrate (e.g., ortho-nitrophenol phosphate) as described in Berger et al. (Gene 66:1-10, 1988).
This example illustrates the effects of CT1590 (racemate N-(5,6-ethylenedioxyhexyl) theobromine), CT1573, CT1567 and CT1501R (an alcohol-substituted xanthine) on cell proliferation as a measure of antitumor activity and the ability of each drug to inhibit gene expression in tumor cells. A specific plasmid construct employing a human CMV (cytomegalovirus) promoter directs the expression of a reporter gene (secreted human placental alkaline phosphatase) that was transformed into the tumor cell line 293-EBNA cells. […]
A general note: A reporter such as luciferase makes a cellular process visible.

Assay [5] relates to thymocyte. In words: Thymocyte proliferation stimulated by ConA and IL-1α. The class given is cell-based, mice (Balb/C). The conditions noted are these: drug added two hours prior to activation; FIG. 2. The method, then: (§1) A thymocyte costimulator assay is conducted to evaluate the inventive compounds to inhibit activation and proliferation of thymocytes caused by stimulation with Con A and interleukin-1 (IL-1), or interleukin-2 (IL-2). Thymuses are obtained from mice (e.g., female Balb/C mice) and the thymuses are removed and dissociated into culture media (e.g., RPMI 1640 without serum supplementation). The dissociated thymus tissue and cell suspension is transferred to centrifuge tubes and allowed to settle, washed with HBSS and resuspended in serum-supplemented culture media (e.g., RPMI 1640 with 10% fetal calf serum). Any contaminating red cells are lysed, and viable cells are resuspended and counted. Thymocytes are plated (e.g., 96-well plates at a density of 2×10^5 cells/well) and a stimulating agent, such as Con A, IL-1 (e.g., IL-1α) or IL-2 is added to the well. The cells are incubated for 4 days at 37° C. On the fourth day, the cells are pulsed with tritiated thymidine and cell proliferation determined. […]
(§2) Thymuses were obtained from normal, female Balb/C mice, dissociated, and plated into 96-well plates at a density of 2×10^5 cells/well. ConA and IL-1α were added to the wells and the cells were incubated for 4 days at 37° C. […] The cells were harvested and incorporated tritiated thymidine was determined in a liquid scintillation counter. […]

For assay [6], the system named is thymocyte. In words: Thymocyte proliferation stimulated by ConA and IL-2. The class given is cell-based, mice (Balb/C). Particulars: drug added two hours prior to activation; FIG. 3. On the procedure: as §1, §2
[7] abbreviates: PDGF BB and IL-1α, FIG. 4, FIG. 9, read-out: IC50 to inhibit stromal cell proliferation stimulated by PDGF BB and IL-1α.

For `CC(O)CCCCn1c(=O)c2c(ncn2C)n(C)c1=O` (stereo not drawn) [M1, 1-(5-hydroxyhexyl)-3,7-dimethylxanthine], the “effect on cerebral blood flow” value in assay [1] is listed as “increasing cerebral blood flow”. Also, the “effect on chemotaxis in polymorphonuclear leukocytes” value in assay [2] is “stimulate chemotaxis”.
`Cn1cnc2c1c(=O)n(CCCCC1COCO1)c(=O)n2C` (racemic) [CT1590, N-(5,6-methylenedioxyhexyl)-3,7-dimethylxanthine]: the “activity in mixed lymphocyte reaction (proliferative response of PBMC to allogeneic stimulation)” value in assay [3] is “showed activity”. In the assay on human stromal cells (setting [7]), the IC50 was about 100 µM. Further, the “inhibition of proliferation of human stromal cells stimulated with PDGF” value in the assay with human stromal cells is “strongly inhibit proliferation”.
In the case of `Cn1cnc2c1c(=O)n(CCCCCCCCC1COCO1)c(=O)n2C` (racemic) [CT1573, N-(9,10-methylenedioxydecyl)-3,7-dimethylxanthine], the “inhibition of cell surface expression of VCAM in HUVEC cells” value in the assay on VCAM is recorded as “inhibit cell surface expression of VCAM”. In addition, the IC50 is under 100 µM with human stromal cells (1 h, PDGF-BB (50 ng/ml), drug one hour prior to stimulation, FIG. 4, read-out: IC50 to inhibit stromal cell proliferation stimulated by PDGF BB) and under 100 µM with human stromal cells (setting [7]). For the same molecule, in the assay with human stromal cells, the “inhibition of proliferation of human stromal cells stimulated with PDGF” value was “strongly inhibit proliferation”. The “inhibition of adhesion of U937 cells to activated HUVEC” value in [4] is listed as “reduced adhesion in a dose-dependent manner”. Also, in the assay with 293-EBNA cells, the “inhibition of gene expression in tumor cells (antitumor activity)” value is “strongly inhibited gene expression”.
Turning to `Cn1cnc2c1c(=O)n(CCCCCC1OCCO1)c(=O)n2C` [CT1567], the “inhibition of cell surface expression of VCAM in HUVEC cells” value in the assay on VCAM is reported as “inhibit cell surface expression of VCAM”. For the same molecule, in assay [3], the “activity in mixed lymphocyte reaction (proliferative response of PBMC to allogeneic stimulation)” value is on record as “showed activity”. Also, in the assay with thymocyte [5], the “inhibition of thymocyte proliferation stimulated by ConA and IL-1α” value was “inhibited thymocyte proliferation in a dose-response manner”. The “inhibition of thymocyte proliferation stimulated by ConA and IL-2” value in the assay with thymocyte [6] is recorded as “inhibited thymocyte proliferation at the highest dose tested”.
